Results as given in patent publication US7208572B2, “Leptin-related peptides” (Albany Medical College, priority 1998, dated 2007).
Marks after values point to notes of the source that are not given here. Square brackets hold non-standard residues; d marks the D form. Ends that are not written are not given here.

What was measured:
Type in all cases: in vivo, mouse
[1] = Epitope mapping: body weight and food intake in female C57BL/6J ob/ob mice, 7 daily ip injections; settings: 7 days; for Cumulative food intake / Percent heavier (+) or lighter (−) than initial weight / Weight gain (+) or loss (−): 1 mg/day ip
Method: Animal procedures. Feeding and weighing schedules, as well as peptide administration protocols, are as described in EXAMPLE 8, supra.
Statistical analysis. Changes in body weight and differences in food intake between peptide-treated and vehicle-injected control mice were analyzed by analysis of variance (ANOVA) and considered significant when P<0.05.
Female ob/ob mice (n=6 per group) were given a single ip injection of 0.2 ml of vehicle (PBS, pH 7.2) or leptin-related synthetic peptide amide in 0.2 ml PBS for 7 consecutive days. Daily changes in body weight compared to pretreatment weights in both vehicle-injected control and peptide-treated mice are shown in FIG. 4. […] There was no evidence of weight loss in response to peptide treatment.

[2] = 12-day ip study of body weight gain and food intake in female C57BL/6J ob/ob mice; settings: 1 mg/day ip, 12 days
Method: The graphs show changes in body weight (expressed as percent of initial weight) and food intake (expressed as mg/gm body weight/mouse) for mice given vehicle or synthetic leptin-related peptide OB3 (1 mg/day, ip, 12 days).
Mice were injected with leptin-related synthetic peptide (1 mg/g body weight, ip) or vehicle daily for 12 consecutive days. Each bar represents mean±SEM food consumption per mouse (n=6 mice per group) after 3, 6, 9 and 12 days of treatment.
Each value represents mean±SEM change in body weight for a group of 6 mice.
Mice were injected with leptin-related synthetic peptide (1 mg/g body weight, ip) or vehicle for 12 consecutive days. Each bar and vertical line represents mean±food consumption per mouse (n=6 mice per group) after 3, 6, 9 and 12 days of treatment.

[3] = Truncated and D-amino acid-substituted analogs: body weight, food and water intake in female C57BL/6J ob/ob mice, 7 days; settings: for Cumulative food intake g/mouse3 g/mouse3 / Decrease(%) of cumulative food intake / Cumulative water intake / Cumulative food intake / Heavier (+) or lighter (−) than initial weight / Weight gain (+) or loss (−): 1 mg/day ip; for Decrease(%) of cumulative food intake / Increase (+) or decrease (−) of cumulative water intake / Increase (+) or decrease (−) of cumulative food intake: vs vehicle; for Food intake relative to OB3: truncated analogs; for Cumulative food intake / Heavier (+) or lighter (−) than initial weight / Weight gain (+) or loss (−) / Increase (+) or decrease (−) of cumulative food intake: D-analog series
Method: A. Housing: 6–8-week old homozygous female obese (ob/ob) and wild type (+1+) mice (C57BL/6J, Jackson Laboratory, Bar Harbor, Maine) were maintained in a temperature-controlled room (24° C.) in the Albany Medical College Animal Resources Facility under alternating 12-h light and dark periods (lights on 0700–1900 h). The animals were housed three per cage, and allowed food and water ad libitum for six days following their arrival.
Food and water remaining after 24 h was measured to the nearest 0.1 g and 0.1 ml, respectively, and the average amount consumed per mouse was calculated (mean±SEM, n=6). The mice were weighed once daily between 0900 and 1100 h on an Acculab V-333 electronic balance (Cole-Parmer, Vernon Hills, Ill.)
C. […] Control mice received 0.2 ml PBS (ip) only.
Female C7BL/6J ob/ob mice were given a single ip injection of vehicle (PBS, pH 7.2), LEP-(116–130) or truncated peptide (1 mg/200 ul PBS) for seven consecutive days. Daily changes in body weight compared to pretreatment weights of vehicle-injected control and peptide-treated mice were analyzed.

[4] = Blood glucose in female C57BL/6J ob/ob mice (Example 11); settings: 1 mg/day ip
Method: D. Measurement of blood glucose: Blood was drawn from the tail vein of each mouse 2 h before the onset of the dark period at the beginning of the study, and after 2, 4, and 6 days of peptide treatment. The blood was applied to a test strip, and glucose levels were measured with a Glucometer Elite (Bayer, Elkhart, Ind.) glucose monitor.

Substance | Cumulative food intake [1] | Percent heavier (+) or lighter (−) than initial weight [1] | Weight gain (+) or loss (−) [1] | Cumulative water intake ([3]; 7 days) | Cumulative food intake ([3]; 7 days) | Heavier (+) or lighter (−) than initial weight ([3]; 7 days) | Weight gain (+) or loss (−) ([3]; 7 days) | Food intake of D-analogs ([3]; 7 days) | Increase (+) or decrease (−) of cumulative water intake [3] | Increase (+) or decrease (−) of cumulative food intake [3] | Serum glucose level ([4]; Day 2) | Serum glucose level ([4]; Day 4) | Serum glucose level ([4]; Day 6) | also measured
A V P I Q K V Q D D T K T L I (AVPIQKVQDDTKTLI) [LEP(21–35)] | 39.1 ± 1.0 gm/mouse | +24.0% | +6.2 g |  |  |  |  |  |  |  |  |  |  | Body weight gain and food intake vs vehicle [2]: not significantly (i.e., P>0.05) different
D F I P G L H P I L S L S K M (DFIPGLHPILSLSKM) [LEP(61–75)] | 44.6 ± 2.3 gm/mouse | +24.0% | +5.9 g |  |  |  |  |  |  |  |  |  |  | 
R I N D I S H T Q S V S A K Q (RINDISHTQSVSAKQ) [LEP(41–55)] | 39.4 ± 1.5 gm/mouse | +27.6% | +5.9 g |  |  |  |  |  |  |  |  |  |  | Body weight gain and food intake vs vehicle [2]: not significantly (i.e., P>0.05) different
S L S K M D Q T L A V Y Q Q V (SLSKMDQTLAVYQQV) [LEP(71–85)] | 35.5 ± 1.1^b gm/mouse | +20.0% | +5.0 g |  |  |  |  |  |  |  |  |  |  | Food intake vs vehicle [1]: significantly (P=0.01) less than vehicle-injected control mice
S Q N V L Q I A N D L E N L R (SQNVLQIANDLENLR; not fully specified (N-terminus)) [LEP(91–105)] | 36.1 ± 0.7^b gm/mouse | +18.6% | +5.2 g |  |  |  |  |  |  |  |  |  |  | Food intake vs vehicle [1]: significantly (P=0.01) less than vehicle-injected control mice
SCSLPQ [LEP-(116–121)] |  |  |  |  |  |  |  |  |  |  |  |  |  | Cumulative food intake g/mouse3 g/mouse3 ([3]; 7 days): 41.6 ± 1.4 g/mouse; Decrease(%) of cumulative food intake ([3]; 7 days): 6.8%; Food intake less than vehicle-injected control mice ([3]; 7 days): 6.8%
SCSLPQTS [LEP-(116–123)] |  |  |  |  |  |  |  |  |  |  |  |  |  | Cumulative food intake g/mouse3 g/mouse3 ([3]; 7 days): 34.3 ± 10 g/mouse; Decrease(%) of cumulative food intake ([3]; 7 days): 23.3%; Food intake relative to OB3 ([3]; 7 days): equivalent to that of mice treated with OB3
SCSLPQTSG [LEP-(116–124)] |  |  |  |  |  |  |  |  |  |  |  |  |  | Cumulative food intake g/mouse3 g/mouse3 ([3]; 7 days): 34.6 ± 0.9 g/mouse; Decrease(%) of cumulative food intake ([3]; 7 days): 22.6%; Food intake relative to OB3 ([3]; 7 days): equivalent to that of mice treated with OB3
SCSL[dP]QT [[D-Pro-5]-OB3] |  |  |  | 32.2 ± 0.8^b ml/mouse | 36.0 ± 12^b g/mouse | +2.4% | +1.2 ± 0.13^b g | equivalent to that of mice receiving OB3 | −49.8% | −28.6% | 272.0 ± 22.2^b mg/dl | 213.0 ± 28.4^a mg/dl | 202.8 ± 31.4^a mg/dl | Water consumption relative to OB3 ([3]; 7 days): significantly less than that seen in mice receiving OB3
S[dC]SLPQT [[D-Cys-2]-OB3] |  |  |  | 62.7 ± 1.7 ml/mouse | 47.6 ± 0.8 g/mouse | +12.8% | +4.8 ± 0.11 g | reduced food intake when compared to vehicle-injected control mice, but not to the level seen in mice receiving OB3 | −2.3% | −5.6% | 298.0 ± 27.9 mg/dL | 403.0 ± 41.1 mg/dL | 346.2 ± 31.7 mg/dL | 
Ser-Cys-Ser-Leu-Pro (SCSLP; printed: Ser-Cys-Ser-Leu-Pro) [LEP-(116–120)] |  |  |  |  |  |  |  |  |  |  |  |  |  | Body weight gain and food intake vs vehicle [2]: did not approximate the activity observed with LEP(116–130); Cumulative food intake g/mouse3 g/mouse3 ([3]; 7 days): 42.4 ± 1.2 g/mouse; Decrease(%) of cumulative food intake ([3]; 7 days): 6.2%; Food intake less than vehicle-injected control mice ([3]; 7 days): 6.2%
Ser-Cys-Ser-Leu-Pro-Gln-[D-Thr] (SCSLPQ[dT]; not fully specified; printed as Ser-Cys-Ser-Leu-Pro-Gln-[D-Thr]) [[D-Thr-7]-OB3] |  |  |  | 68.3 ± 2.7 ml/mouse | 56.1 ± 0.6 g/mouse | +10.6% | +4.6 ± 0.34 g | slight increase in food consumption | +6.4% | +11.3% | 384.2 ± 18.1 mg/dL | 405.5 ± 16.0 mg/dL | 375.7 ± 17.8 mg/dL | 
Ser-Cys-Ser-Leu-Pro-[D-Gln]-Thr (SCSLP[dQ]T) [[D-Gln-6]-OB3] |  |  |  | 57.1 ± 1.0 ml/mouse | 43.5 ± 0.9 g/mouse | +4.6% | +2.1 ± 0.14 g | reduced food intake when compared to vehicle-injected control mice, but not to the level seen in mice receiving OB3 | −11.1% | −13.7% | 394.0 ± 45.4 mg/dL | 354.5 ± 17.3 mg/dL | 358.0 ± 28.1 mg/dL | 
Ser-Cys-[D-Ser]-Leu-Pro-Gln-Thr (SC[dS]LPQT) [[D-Ser-3]-OB3] |  |  |  | 53.2 ± 1.1 ml/mouse | 45.9 ± 0.6 g/mouse | +13.2% | +4.7 ± 0.67 g | reduced food intake when compared to vehicle-injected control mice, but not to the level seen in mice receiving OB3 | −17.1% | −8.9% | 385.0 ± 10.0 mg/dL | 337.0 ± 43.6 mg/dL | 348.2 ± 14.0 mg/dL | 
T K T L I K T I V T R I N D I (TKTLIKTIVTRINDI) [LEP(31–45)] | 39.5 ± 0.6 gm/mouse | +26.6% | +6.6 g |  |  |  |  |  |  |  |  |  |  | Body weight gain and food intake vs vehicle [2]: not significantly (i.e., P>0.05) different
V S A K Q R V T G L D F I P G (VSAKQRVTGLDFIPG; not fully specified) [LEP(51–65)] | 40.7 ± 0.6 gm/mouse | +25.0% | +6.4 g |  |  |  |  |  |  |  |  |  |  | Body weight gain and food intake vs vehicle [2]: not significantly (i.e., P>0.05) different
V Y Q Q V L T S L P S Q N V L (VYQQVLTSLPSQNVL) [LEP(81–95)] | 39.5 ± 1.1 gm/mouse | +26.0% | +6.2 g |  |  |  |  |  |  |  |  |  |  | 
[D-Ser]-Cys-Ser-Leu-Pro-Gln-Thr ([dS]CSLPQT) [[D-Ser-1]-OB3] |  |  |  | 58.0 ± 1.8 ml/mouse | 44.4 ± 1.4 g/mouse | +4.6% | +3.3 ± 0.18 g | reduced food intake when compared to vehicle-injected control mice, but not to the level seen in mice receiving OB3 | −9.7% | −11.9% | 356.0 ± 21.2 mg/dL | 360.1 ± 25.1 mg/dL | 287.0 ± 24.4 mg/dL | 
[D-Ser][D-Cys][D-Ser][D-Leu][D-Pro][D-Gln][D-Thr] [[D]-OB3] |  |  |  | 67.5 ± 2.2 ml/mouse | 52.7 ± 1.0 g/mouse | +10.0% | +4.0 ± 0.36 g | slight increase in food consumption | +5.1% | +4.6% | 325.7 ± 31.5 mg/dL | 405.5 ± 35.8 mg/dL | 401.8 ± 25.0 mg/dL | 
